# Assay results: article PMC6591251, “Discovery of potent necroptosis inhibitors targeting RIPK1 kinase activity for the treatment of inflammatory disorder and cancer metastasis” (Cell Death & Disease, 2019)
# Key:
# Assay in all cases: RBC kinase panel
# Assay type in all cases: biochemical
# LKB1 = molecular target: T1, LKB1 (Homo sapiens, UniProt Q15831); settings: ATP 10 μM, Data1, Data2
# T1 construct: purchased Reaction Biology Corporation
# Method in brief: (§1)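 Duplicate determinations were made for each of 369 human kinases exposed to 1 μM compound, with reactions run at 10 μM ATP.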
# DCAMKL2 = molecular target: T2, DCAMKL2 (Homo sapiens, UniProt Q8N568); settings: ATP 10 μM, Data1, Data2
# T2 construct: purchased Reaction Biology Corporation
# Method in brief: as §1
# SRPK2 = molecular target: T3, SRPK2 (Homo sapiens, UniProt P78362); settings: ATP 10 μM, Data1, Data2
# T3 construct: purchased Reaction Biology Corporation
# Method in brief: as §1
# IKKb/IKBKB = molecular target: T4, IKKb/IKBKB (Homo sapiens, UniProt O14920); settings: ATP 10 μM, Data1, Data2
# T4 construct: purchased Reaction Biology Corporation
# Method in brief: as §1
# MLCK2/MYLK2 = molecular target: T5, MLCK2/MYLK2 (Homo sapiens, UniProt Q9H1R3); settings: ATP 10 μM, Data1, Data2
# T5 construct: purchased Reaction Biology Corporation
# Method in brief: as §1
# SGK2 = molecular target: T6, SGK2 (Homo sapiens, UniProt Q9HBY8); settings: ATP 10 μM, Data1, Data2
# T6 construct: purchased Reaction Biology Corporation
# Method in brief: as §1
# MLK4 = molecular target: T7, MLK4 (Homo sapiens, UniProt Q5TCX8); settings: ATP 10 μM, Data1, Data2
# T7 construct: purchased Reaction Biology Corporation
# Method in brief: as §1
# MELK = molecular target: T8, MELK (Homo sapiens, UniProt Q14680); settings: ATP 10 μM, Data1, Data2
# T8 construct: purchased Reaction Biology Corporation
# Method in brief: as §1
# ARAF = molecular target: T9, ARAF (Homo sapiens, UniProt P10398); settings: ATP 10 μM, Data1, Data2
# T9 construct: purchased Reaction Biology Corporation
# Method in brief: as §1
# PBK/TOPK = molecular target: T10, PBK/TOPK (Homo sapiens, UniProt Q96KB5); settings: ATP 10 μM, Data1, Data2
# T10 construct: purchased Reaction Biology Corporation
# Method in brief: as §1
# MARK3 = molecular target: T11, MARK3 (Homo sapiens, UniProt P27448); settings: ATP 10 μM, Data1, Data2
# T11 construct: purchased Reaction Biology Corporation
# Method in brief: as §1
# OSR1/OXSR1 = molecular target: T12, OSR1/OXSR1 (Homo sapiens, UniProt O95747); settings: ATP 10 μM, Data1, Data2
# T12 construct: purchased Reaction Biology Corporation
# Method in brief: as §1
# SNRK = molecular target: T13, SNRK (Homo sapiens, UniProt Q9NRH2); settings: ATP 10 μM, Data1, Data2
# T13 construct: purchased Reaction Biology Corporation
# Method in brief: as §1
# SRMS = molecular target: T14, SRMS (Homo sapiens, UniProt Q9H3Y6); settings: ATP 10 μM, Data1, Data2
# T14 construct: purchased Reaction Biology Corporation
# Method in brief: as §1
# CAMK2b = molecular target: T15, CAMK2b (Homo sapiens, UniProt Q13554); settings: ATP 10 μM, Data1, Data2
# T15 construct: purchased Reaction Biology Corporation
# Method in brief: as §1
# PHKg1 = molecular target: T16, PHKg1 (Homo sapiens, UniProt Q16816); settings: ATP 10 μM, Data1, Data2
# T16 construct: purchased Reaction Biology Corporation
# T16 sequence (Q16816 whole entry): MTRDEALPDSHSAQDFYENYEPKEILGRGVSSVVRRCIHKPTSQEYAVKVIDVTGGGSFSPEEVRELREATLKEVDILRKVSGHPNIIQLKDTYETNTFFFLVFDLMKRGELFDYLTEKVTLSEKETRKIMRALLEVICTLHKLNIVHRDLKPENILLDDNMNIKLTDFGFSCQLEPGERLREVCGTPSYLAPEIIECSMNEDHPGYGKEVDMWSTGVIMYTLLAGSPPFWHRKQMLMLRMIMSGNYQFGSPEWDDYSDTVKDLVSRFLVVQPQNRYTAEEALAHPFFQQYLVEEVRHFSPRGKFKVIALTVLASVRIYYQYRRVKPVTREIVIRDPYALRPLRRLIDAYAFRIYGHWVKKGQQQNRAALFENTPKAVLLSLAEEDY
# Method in brief: as §1
# LATS1 = molecular target: T17, LATS1 (Homo sapiens, UniProt O95835); settings: ATP 10 μM, Data1, Data2
# T17 construct: purchased Reaction Biology Corporation
# Method in brief: as §1
# CDK2/Cyclin A1 = molecular target: T18, CDK2/Cyclin A1 (Homo sapiens, UniProt P24941); settings: ATP 10 μM, Data1, Data2
# T18 construct: purchased Reaction Biology Corporation
# Method in brief: as §1
# P38a/MAPK14 = molecular target: T19, P38a/MAPK14 (Homo sapiens, UniProt Q16539); settings: ATP 10 μM, Data1, Data2
# T19 construct: purchased Reaction Biology Corporation
# Method in brief: as §1
# PAK6 = molecular target: T20, PAK6 (Homo sapiens, UniProt Q9NQU5); settings: ATP 10 μM, Data1, Data2
# T20 construct: purchased Reaction Biology Corporation
# Method in brief: as §1
# PKCiota = molecular target: T21, PKCiota (Homo sapiens, UniProt P41743); settings: ATP 10 μM, Data1, Data2
# T21 construct: purchased Reaction Biology Corporation
# T21 sequence (P41743 whole entry): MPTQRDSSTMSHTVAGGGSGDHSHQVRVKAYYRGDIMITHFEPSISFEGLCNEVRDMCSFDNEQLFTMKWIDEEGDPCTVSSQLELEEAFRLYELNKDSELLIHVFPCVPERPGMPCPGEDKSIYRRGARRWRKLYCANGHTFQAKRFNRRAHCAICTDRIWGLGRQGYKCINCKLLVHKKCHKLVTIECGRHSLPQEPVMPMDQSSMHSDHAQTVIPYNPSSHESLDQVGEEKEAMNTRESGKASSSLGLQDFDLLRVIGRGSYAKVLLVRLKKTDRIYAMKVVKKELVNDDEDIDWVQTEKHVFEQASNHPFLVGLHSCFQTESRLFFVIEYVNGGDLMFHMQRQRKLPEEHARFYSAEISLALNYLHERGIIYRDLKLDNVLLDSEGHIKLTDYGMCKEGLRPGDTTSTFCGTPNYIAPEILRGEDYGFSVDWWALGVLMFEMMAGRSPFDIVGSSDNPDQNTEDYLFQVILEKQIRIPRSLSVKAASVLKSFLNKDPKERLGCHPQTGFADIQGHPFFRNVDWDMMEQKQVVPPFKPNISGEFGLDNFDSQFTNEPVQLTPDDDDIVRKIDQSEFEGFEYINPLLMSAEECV
# Method in brief: as §1
# SRPK1 = molecular target: T22, SRPK1 (Homo sapiens, UniProt Q96SB4); settings: ATP 10 μM, Data1, Data2
# T22 construct: purchased Reaction Biology Corporation
# Method in brief: as §1
# PKCb1 = molecular target: T23, PKCb1 (Homo sapiens, UniProt P05771); settings: ATP 10 μM, Data1, Data2
# T23 construct: purchased Reaction Biology Corporation
# Method in brief: as §1
# SIK2 = molecular target: T24, SIK2 (Homo sapiens, UniProt Q9H0K1); settings: ATP 10 μM, Data1, Data2
# T24 construct: purchased Reaction Biology Corporation
# Method in brief: as §1
# ASK1/MAP3K5 = molecular target: T25, ASK1/MAP3K5 (Homo sapiens, UniProt Q99683); settings: ATP 10 μM, Data1, Data2
# T25 construct: purchased Reaction Biology Corporation
# Method in brief: as §1
# NEK8 = molecular target: T26, NEK8 (Homo sapiens, UniProt Q86SG6); settings: ATP 10 μM, Data1, Data2
# T26 construct: purchased Reaction Biology Corporation
# Method in brief: as §1
# PKCzeta = molecular target: T27, PKCzeta (Homo sapiens, UniProt Q05513); settings: ATP 10 μM, Data1, Data2
# T27 construct: purchased Reaction Biology Corporation
# Method in brief: as §1
# ULK1 = molecular target: T28, ULK1 (Homo sapiens, UniProt O75385); settings: ATP 10 μM, Data1, Data2
# T28 construct: purchased Reaction Biology Corporation
# Method in brief: as §1
# TRKB = molecular target: T29, TRKB (Homo sapiens, UniProt Q16620)
# T29 construct: purchased Reaction Biology Corporation
# T29 sequence (Q16620 32-822): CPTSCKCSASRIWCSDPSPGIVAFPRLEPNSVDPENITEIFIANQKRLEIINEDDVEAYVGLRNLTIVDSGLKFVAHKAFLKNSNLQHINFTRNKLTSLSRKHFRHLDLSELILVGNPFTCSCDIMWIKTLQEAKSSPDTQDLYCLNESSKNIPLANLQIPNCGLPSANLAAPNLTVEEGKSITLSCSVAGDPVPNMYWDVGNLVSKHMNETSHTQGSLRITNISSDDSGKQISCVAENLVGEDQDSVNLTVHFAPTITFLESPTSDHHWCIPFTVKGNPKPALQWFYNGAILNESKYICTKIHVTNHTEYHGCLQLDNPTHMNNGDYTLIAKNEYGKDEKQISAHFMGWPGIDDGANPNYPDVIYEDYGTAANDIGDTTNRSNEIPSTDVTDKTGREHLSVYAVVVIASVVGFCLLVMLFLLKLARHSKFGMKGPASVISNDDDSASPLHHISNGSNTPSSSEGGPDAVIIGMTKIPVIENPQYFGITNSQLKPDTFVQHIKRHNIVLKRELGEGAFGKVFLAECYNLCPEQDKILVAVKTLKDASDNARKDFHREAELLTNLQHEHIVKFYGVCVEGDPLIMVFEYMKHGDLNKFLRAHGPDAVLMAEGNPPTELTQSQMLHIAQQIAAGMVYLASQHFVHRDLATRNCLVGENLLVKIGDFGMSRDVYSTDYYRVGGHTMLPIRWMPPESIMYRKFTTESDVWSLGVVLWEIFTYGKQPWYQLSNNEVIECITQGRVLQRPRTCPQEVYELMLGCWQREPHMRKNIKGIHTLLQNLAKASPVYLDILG
# Method in brief: as §1
# CDK6/cyclin D3 = molecular target: T30, CDK6/cyclin D3 (Homo sapiens, UniProt Q00534); settings: ATP 10 μM, Data1, Data2
# T30 construct: purchased Reaction Biology Corporation
# Method in brief: as §1
# EPHA7 = molecular target: T31, EPHA7 (Homo sapiens, UniProt Q15375); settings: ATP 10 μM, Data1, Data2
# T31 construct: purchased Reaction Biology Corporation
# T31 sequence (Q15375 28-998): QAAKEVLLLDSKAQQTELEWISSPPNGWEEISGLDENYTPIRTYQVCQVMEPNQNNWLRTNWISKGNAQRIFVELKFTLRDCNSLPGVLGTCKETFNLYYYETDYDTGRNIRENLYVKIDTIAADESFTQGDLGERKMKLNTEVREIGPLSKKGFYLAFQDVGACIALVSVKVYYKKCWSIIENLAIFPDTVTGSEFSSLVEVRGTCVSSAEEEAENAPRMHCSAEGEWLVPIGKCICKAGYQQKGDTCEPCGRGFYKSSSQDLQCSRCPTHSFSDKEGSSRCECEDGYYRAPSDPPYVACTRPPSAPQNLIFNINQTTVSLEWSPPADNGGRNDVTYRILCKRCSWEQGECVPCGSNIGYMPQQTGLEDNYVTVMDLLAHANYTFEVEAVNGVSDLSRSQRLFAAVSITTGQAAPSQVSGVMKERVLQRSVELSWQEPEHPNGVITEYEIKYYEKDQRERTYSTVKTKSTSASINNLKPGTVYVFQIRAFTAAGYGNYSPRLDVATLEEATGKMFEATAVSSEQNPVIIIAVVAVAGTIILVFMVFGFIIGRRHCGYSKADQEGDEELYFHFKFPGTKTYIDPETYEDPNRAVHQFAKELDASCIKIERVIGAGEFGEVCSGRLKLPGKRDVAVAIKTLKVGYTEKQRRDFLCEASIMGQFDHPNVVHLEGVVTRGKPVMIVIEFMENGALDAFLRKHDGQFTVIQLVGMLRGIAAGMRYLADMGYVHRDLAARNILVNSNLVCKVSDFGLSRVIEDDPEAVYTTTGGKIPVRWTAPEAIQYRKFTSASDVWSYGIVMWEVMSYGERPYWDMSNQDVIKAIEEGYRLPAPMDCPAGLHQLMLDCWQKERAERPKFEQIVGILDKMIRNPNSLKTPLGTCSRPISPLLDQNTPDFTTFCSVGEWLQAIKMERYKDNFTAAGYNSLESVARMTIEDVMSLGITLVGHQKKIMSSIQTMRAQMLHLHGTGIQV
# Method in brief: as §1
# ERN1/IRE1 = molecular target: T32, ERN1/IRE1 (Homo sapiens, UniProt O75460); settings: ATP 10 μM, Data1, Data2
# T32 construct: purchased Reaction Biology Corporation
# T32 sequence (O75460 19-977): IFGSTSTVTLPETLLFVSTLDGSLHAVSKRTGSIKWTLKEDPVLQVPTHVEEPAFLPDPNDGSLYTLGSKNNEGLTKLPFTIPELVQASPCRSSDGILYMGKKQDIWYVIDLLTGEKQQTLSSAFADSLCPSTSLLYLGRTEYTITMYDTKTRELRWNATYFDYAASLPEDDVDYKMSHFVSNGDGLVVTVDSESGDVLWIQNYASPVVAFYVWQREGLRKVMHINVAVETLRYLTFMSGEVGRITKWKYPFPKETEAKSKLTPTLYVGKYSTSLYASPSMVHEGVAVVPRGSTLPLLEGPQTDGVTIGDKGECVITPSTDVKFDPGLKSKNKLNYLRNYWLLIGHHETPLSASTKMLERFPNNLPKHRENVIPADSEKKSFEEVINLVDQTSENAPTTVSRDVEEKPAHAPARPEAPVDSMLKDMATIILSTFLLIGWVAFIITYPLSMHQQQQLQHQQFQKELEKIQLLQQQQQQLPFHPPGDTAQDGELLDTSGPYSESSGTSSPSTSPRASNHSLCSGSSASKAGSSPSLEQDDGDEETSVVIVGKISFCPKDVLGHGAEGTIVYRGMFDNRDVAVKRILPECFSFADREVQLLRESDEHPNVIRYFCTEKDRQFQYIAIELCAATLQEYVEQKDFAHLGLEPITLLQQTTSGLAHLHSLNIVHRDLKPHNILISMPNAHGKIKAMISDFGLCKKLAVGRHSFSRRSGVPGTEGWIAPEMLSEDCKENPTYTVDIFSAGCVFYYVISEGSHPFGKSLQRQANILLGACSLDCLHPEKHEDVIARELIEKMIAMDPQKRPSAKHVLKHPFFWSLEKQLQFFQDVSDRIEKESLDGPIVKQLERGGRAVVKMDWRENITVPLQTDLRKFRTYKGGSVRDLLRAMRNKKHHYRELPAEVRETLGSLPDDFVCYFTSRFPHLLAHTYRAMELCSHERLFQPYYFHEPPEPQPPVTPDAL
# Method in brief: as §1
# CLK2 = molecular target: T33, CLK2 (Homo sapiens, UniProt P49760); settings: ATP 10 μM, Data1, Data2
# T33 construct: purchased Reaction Biology Corporation
# Method in brief: as §1
# T1 sequence (Q15831 whole entry): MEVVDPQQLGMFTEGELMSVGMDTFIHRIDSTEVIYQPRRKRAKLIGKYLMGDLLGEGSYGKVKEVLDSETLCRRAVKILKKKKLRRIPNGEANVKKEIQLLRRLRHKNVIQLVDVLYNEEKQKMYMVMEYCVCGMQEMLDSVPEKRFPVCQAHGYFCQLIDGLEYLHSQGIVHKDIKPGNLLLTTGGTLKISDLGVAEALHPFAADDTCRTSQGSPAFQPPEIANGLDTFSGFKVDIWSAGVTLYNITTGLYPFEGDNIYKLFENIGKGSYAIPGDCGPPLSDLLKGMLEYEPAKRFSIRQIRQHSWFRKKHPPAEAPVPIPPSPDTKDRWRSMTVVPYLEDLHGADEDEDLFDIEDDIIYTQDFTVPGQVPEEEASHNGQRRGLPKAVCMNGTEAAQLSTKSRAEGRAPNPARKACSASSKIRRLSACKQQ
# T1 sequence (Q7RTN6 whole entry partner): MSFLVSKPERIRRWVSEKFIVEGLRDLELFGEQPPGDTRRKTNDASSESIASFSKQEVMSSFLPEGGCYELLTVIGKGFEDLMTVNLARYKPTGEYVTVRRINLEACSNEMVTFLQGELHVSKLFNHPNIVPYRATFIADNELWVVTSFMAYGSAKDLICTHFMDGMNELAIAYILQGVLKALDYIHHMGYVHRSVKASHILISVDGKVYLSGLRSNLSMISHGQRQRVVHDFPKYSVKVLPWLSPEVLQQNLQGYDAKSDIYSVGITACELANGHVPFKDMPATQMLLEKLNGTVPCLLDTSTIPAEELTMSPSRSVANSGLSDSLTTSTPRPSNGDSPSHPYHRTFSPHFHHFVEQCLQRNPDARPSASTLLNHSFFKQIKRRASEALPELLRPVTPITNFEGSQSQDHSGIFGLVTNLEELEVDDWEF
# T1 sequence (Q9Y376 whole entry partner): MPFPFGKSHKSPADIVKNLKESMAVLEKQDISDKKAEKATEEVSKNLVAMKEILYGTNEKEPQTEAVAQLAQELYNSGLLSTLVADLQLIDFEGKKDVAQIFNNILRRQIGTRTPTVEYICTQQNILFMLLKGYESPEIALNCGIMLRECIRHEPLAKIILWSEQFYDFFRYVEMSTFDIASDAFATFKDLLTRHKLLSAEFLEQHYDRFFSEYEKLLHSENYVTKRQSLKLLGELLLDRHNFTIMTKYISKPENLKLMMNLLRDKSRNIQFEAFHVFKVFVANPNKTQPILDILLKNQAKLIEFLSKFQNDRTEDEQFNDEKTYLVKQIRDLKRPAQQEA
smiles,measurement,setting,value
"CC(=O)Nc1nc2ccc(-c3cnc(C)c(NC(=O)OC4CCCCC4)c3)cc2s1 [PK68, cyclohexyl (5-(2-acetamidobenzo[d]thiazol-6-yl)-2-methylpyridin-3-yl)carbamate]",Activity%,LKB1; 1 μM,102.07%
same,activity at 1 µM,LKB1,103%
same,Activity%,DCAMKL2; 1 μM,99.58%
same,activity at 1 µM,DCAMKL2,100%
same,Activity%,SRPK2; 1 μM,100.99%
same,activity at 1 µM,SRPK2,101%
same,Activity%,IKKb/IKBKB; 1 μM,107.97%
same,activity at 1 µM,IKKb/IKBKB,109%
same,Activity%,MLCK2/MYLK2; 1 μM,50.92%
same,activity at 1 µM,MLCK2/MYLK2,51.3%
same,Activity%,SGK2; 1 μM,99.97%
same,activity at 1 µM,SGK2,101%
same,Activity%,MLK4; 1 μM,104.45%
same,activity at 1 µM,MLK4,107%
same,Activity%,MELK; 1 μM,100.40%
same,activity at 1 µM,MELK,102%
same,Activity%,ARAF; 1 μM,60.01%
same,activity at 1 µM,ARAF,60.5%
same,Activity%,PBK/TOPK; 1 μM,97.84%
same,activity at 1 µM,PBK/TOPK,98.4%
same,Activity%,MARK3; 1 μM,103.78%
same,activity at 1 µM,MARK3,104%
same,Activity%,OSR1/OXSR1; 1 μM,102.40%
same,activity at 1 µM,OSR1/OXSR1,105%
same,Activity%,SNRK; 1 μM,90.23%
same,activity at 1 µM,SNRK,94.9%
same,Activity%,SRMS; 1 μM,97.95%
same,activity at 1 µM,SRMS,99.7%
same,Activity%,CAMK2b; 1 μM,99.42%
same,activity at 1 µM,CAMK2b,102%
same,Activity%,PHKg1; 1 μM,93.46%
same,activity at 1 µM,PHKg1,93.6%
same,Activity%,LATS1; 1 μM,101.83%
same,activity at 1 µM,LATS1,103%
same,Activity%,CDK2/Cyclin A1; 1 μM,96.71%
same,activity at 1 µM,CDK2/Cyclin A1,98.5%
same,Activity%,P38a/MAPK14; 1 μM,102.59%
same,activity at 1 µM,P38a/MAPK14,106%
same,Activity%,PAK6; 1 μM,92.62%
same,activity at 1 µM,PAK6,93.6%
same,Activity%,PKCiota; 1 μM,92.87%
same,activity at 1 µM,PKCiota,97%
same,Activity%,SRPK1; 1 μM,99.67%
same,activity at 1 µM,SRPK1,100%
same,Activity%,PKCb1; 1 μM,84.55%
same,activity at 1 µM,PKCb1,84.8%
same,Activity%,SIK2; 1 μM,94.58%
same,activity at 1 µM,SIK2,95.5%
same,Activity%,ASK1/MAP3K5; 1 μM,93.46%
same,activity at 1 µM,ASK1/MAP3K5,95.2%
same,Activity%,NEK8; 1 μM,79.27%
same,activity at 1 µM,NEK8,79.9%
same,Activity%,PKCzeta; 1 μM,102.04%
same,activity at 1 µM,PKCzeta,103%
same,Activity%,ULK1; 1 μM,100.13%
same,activity at 1 µM,ULK1,105%
same,Activity%,"TRKB; 1 μM, ATP 10 μM, Data1, Data2",41.21%
same,activity at 1 µM,"TRKB; 1 μM, ATP 10 μM, Data1, Data2",41.2%
same,inhibition at 1 µM,TRKB; at 1000 nM,> 50%
same,Activity%,CDK6/cyclin D3; 1 μM,81.98%
same,activity at 1 µM,CDK6/cyclin D3,82.6%
same,Activity%,EPHA7; 1 μM,85.80%
same,activity at 1 µM,EPHA7,86.9%
same,Activity%,ERN1/IRE1; 1 μM,88.33%
same,activity at 1 µM,ERN1/IRE1,88.7%
same,Activity%,CLK2; 1 μM,77.67%
same,activity at 1 µM,CLK2,80.5%
